Experimental findings from patent publication US20110104256A1, “METHODS FOR TREATING OR PREVENTING COLORECTAL CANCER” (priority 2008, published 2011) are described below.

Marks after values point to notes of the source that are not given here.

The subject of this experiment is WiDr human colorectal adenocarcinoma cells. Kind of experiment: Inhibition of colorectal tumor growth in WiDr xenograft model. Format: in vivo, nude mouse (nu/nu). To be noted: for % Growth Inhibition: WiDr xenograft, nude mice. The text has this:
In these experiments, 5 million WiDr human colorectal adenocarcinoma cells, mixed 1:1 with Matrigel, were inoculated subcutaneously to the flank of each nude mouse (nu/nu).

The mark [1] stands for this setting: Day 10 post inoculation, 0.5 mg anti-IGF1R IP 2x/week, 40 mpk Sunitinib PO QD (Table 6).
[2] abbreviates: Day 14 post inoculation, 0.5 mg anti-IGF1R IP 2x/week, 40 mpk Sunitinib PO QD (Table 6).
[3] abbreviates: Day 17 post inoculation, 0.5 mg anti-IGF1R IP 2x/week, 40 mpk Sunitinib PO QD (Table 6).
[4] abbreviates: Day 21 post inoculation, 0.5 mg anti-IGF1R IP 2x/week, 40 mpk Sunitinib PO QD (Table 6).
[5] abbreviates: Day 24 post inoculation, 0.5 mg anti-IGF1R IP 2x/week, 40 mpk Sunitinib PO QD (Table 6).
[6] abbreviates: Day 28 post inoculation, 0.5 mg anti-IGF1R IP 2x/week, 40 mpk Sunitinib PO QD (Table 6).
Where [7] appears, read: Day 35 post inoculation, 0.5 mg anti-IGF1R IP 2x/week, 40 mpk Sunitinib PO QD (Table 6).
The mark [8] stands for this setting: 0.5 mg anti-IGF1R IP 2x/week, 40 mpk Sunitinib PO QD (Table 5).

Regarding `CCN(CC)CCNC(=O)c1c(C)[nH]c(/C=C2\C(=O)Nc3ccc(F)cc32)c1C` [Sunitinib, sunitinib, reference compound], the Mean tumor volume is 95.8 mm^3 under setting [1]; 125.4 mm^3 under setting [2]; 143.1 mm^3 under setting [3]; 175.6 mm^3 under setting [4]; 194.8 mm^3 under setting [5]; 205.9 mm^3 under setting [6]. The compound further displayed a Mean tumor volume under setting [7] of 238.6 mm^3. For the same compound, the “% Growth Inhibition” value under setting [8] was 79^a %.
Turning to “anti-IGF1R: anti-IGF1R antibody with 15H12/19D12 immunoglobulin light chain-F (LCF, κ) and heavy chain-A (HCA, γ1)”, the Mean tumor volume is 93.1 mm^3 under setting [1]; 93.1 mm^3 (Day 10 post inoculation, 0.5 mg anti-IGF1R, 10 mpk Leucovorin/60 mpk 5-FU, IP 2x/week (Table 3)); 148.0 mm^3 under setting [2]; 148.0 mm^3 (Day 14 post inoculation, 0.5 mg anti-IGF1R, 10 mpk Leucovorin/60 mpk 5-FU, IP 2x/week (Table 3)); 192.0 mm^3 under setting [3]; 192.0 mm^3 (Day 17 post inoculation, 0.5 mg anti-IGF1R, 10 mpk Leucovorin/60 mpk 5-FU, IP 2x/week (Table 3)). Also, the Mean tumor volume runs as follows: under setting [4], 254.1 mm^3; (Day 21 post inoculation, 0.5 mg anti-IGF1R, 10 mpk Leucovorin/60 mpk 5-FU, IP 2x/week (Table 3)) 254.1 mm^3; under setting [5], 317.0 mm^3; (Day 24 post inoculation, 0.5 mg anti-IGF1R, 10 mpk Leucovorin/60 mpk 5-FU, IP 2x/week (Table 3)) 317.0 mm^3; under setting [6], 403.1 mm^3; (Day 28 post inoculation, 0.5 mg anti-IGF1R, 10 mpk Leucovorin/60 mpk 5-FU, IP 2x/week (Table 3)) 403.1 mm^3. In addition, the Mean tumor volume was 474.5 mm^3 (Day 31 post inoculation, 0.5 mg anti-IGF1R IP 2x/week, 40 mpk Sunitinib PO QD (Table 6)); 474.5 mm^3 (Day 31 post inoculation, 0.5 mg anti-IGF1R, 10 mpk Leucovorin/60 mpk 5-FU, IP 2x/week (Table 3)); 577.6 mm^3 under setting [7]; 577.6 mm^3 (Day 35 post inoculation, 0.5 mg anti-IGF1R, 10 mpk Leucovorin/60 mpk 5-FU, IP 2x/week (Table 3)). Besides, the “% Growth Inhibition” value is reported as 30% under setting [8] and 30% (0.5 mg anti-IGF1R IP 2x/week, 60 mpk 5-FU/10 mpk Leucovorin IP 2x/week (Table 2)).
